# Target: T1, mu opiate receptor (MOR) (Rattus norvegicus, UniProt P33535)
# T1 construct: from tissue; host or cells: rat striatal membrane preparation
# Assay: MOR agonist activity using [35S]GTPγS binding assay in striatal membranes
# Assay type: biochemical
# Conditions: for MOR agonist activity, [35S]GTPγS binding to Gαo, FLNA-binding compound as agonist 0.1 μM: 0.1 μM compound; for MOR agonist activity, [35S]GTPγS binding to Gαo, FLNA-binding compound as agonist 0.1 μM / MOR agonist activity, [35S]GTPγS binding to Gαo, FLNA-binding compound as agonist 1 μM: striatal membranes; for MOR agonist activity, [35S]GTPγS binding to Gαo, 1 μM + BFNA: 1 μM compound + 1 μM β-funaltrexamine; for MOR agonist activity, [35S]GTPγS binding to Gαo, FLNA-binding compound as agonist 1 μM: 1 μM compound
# Method: To assess the mu opiate receptor (MOR) agonist activity of positive compounds from the FLNA screening, compounds were tested in a [^35S]GTPγS binding assay using striatal membranes.
# Striatal tissue was homogenized in 10 volumes of ice cold 25 mM HEPES buffer, pH 7.4, which contained 1 mM EGTA, 100 mM sucrose, 50 μg/ml leupeptin, 0.04 mM PMSF, 2 μg/ml soybean trypsin inhibitor and 0.2% 2-mercaptoethanol. The homogenates were centrifuged at 800×g for 5 minutes and the supernatants were centrifuged at 49,000×g for 20 minutes.
# The resultant striatal membrane preparation (200 μg) was admixed and maintained (incubated) at 30° C. for 5 minutes in reaction buffer as above that additionally contained 1 mM MgCl2 and 0.5 nM [^35S]GTPγS (0.1 μCi/assay, PerkinElmer Life and Analytical Sciences) in a total volume of 250 μl and continued for 5 minutes in the absence or presence of 0.1-10 μM of an assayed compound of interest. The reaction was terminated by dilution with 750 μl of ice-cold reaction buffer that contained 20 mM MgCl2 and 1 mM EGTA and immediate centrifugation at 16,000×g for 5 minutes.
# The resulting pellet was solubilized by sonicating for 10 seconds in 0.5 ml of immunoprecipitation buffer containing 0.5% digitonin, 0.2% sodium cholate and 0.5% NP-40. Normal rabbit serum (1 μl) was added to 1 ml of lysate and incubated at 25° C. for 30 minutes. Nonspecific immune complexes were removed by incubation with 25 μl of protein A/G-conjugated agarose beads at 25° C. for 30 minutes followed by centrifugation at 5,000×g at 4° C. for 5 minutes. The supernatant was divided and separately incubated at 25° C. for 30 minutes with antibodies raised against Gαo proteins (1:1,000 dilutions).
# The immunocomplexes so formed were collected by incubation at 25° C. for 30 minutes with 40 μl of agarose-conjugated protein A/G beads and centrifugation at 5,000×g at 4° C. for 5 minutes. The pellet was washed and suspended in buffer containing 50 mM Tris-HCl, pH 8.0, and 1% NP-40. The radioactivity in the suspension was determined by liquid scintillation spectrometry. […] DAMGO (H-Tyr-D-Ala-Gly-N-MePhe-Gly-OH; 1 or 10 μM) was used as a positive control.
# T1 sequence (P33535 whole entry): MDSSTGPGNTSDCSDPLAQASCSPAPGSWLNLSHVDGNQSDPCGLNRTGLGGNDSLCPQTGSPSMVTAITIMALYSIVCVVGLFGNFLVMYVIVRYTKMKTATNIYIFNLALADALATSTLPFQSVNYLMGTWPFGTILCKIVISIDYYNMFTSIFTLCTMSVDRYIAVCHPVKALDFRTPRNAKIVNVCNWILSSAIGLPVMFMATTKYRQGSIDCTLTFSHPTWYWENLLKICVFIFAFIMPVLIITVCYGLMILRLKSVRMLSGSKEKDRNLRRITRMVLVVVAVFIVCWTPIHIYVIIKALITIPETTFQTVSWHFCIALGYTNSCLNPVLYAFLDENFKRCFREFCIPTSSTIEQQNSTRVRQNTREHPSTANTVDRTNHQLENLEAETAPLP
SMILES,"MOR agonist activity, [35S]GTPγS binding to Gαo, FLNA-binding compound as agonist 0.1 μM [%]","MOR agonist activity, [35S]GTPγS binding to Gαo, 1 μM + BFNA [%]","MOR agonist activity, [35S]GTPγS binding to Gαo, FLNA-binding compound as agonist 1 μM [%]"
COc1ccc(S(=O)(=O)N2CCC3(CC2)OCCN3S(=O)(=O)c2ccc(OC)cc2)cc1 [Compound 7866],152.3,62.4,308.2
Cc1ccc(S(=O)(=O)N2CCC3(CC2)OCCN3S(=O)(=O)c2ccc(C)cc2)cc1 [Compound C0001],129.3,33.9,184.3
COc1cccc(S(=O)(=O)N2CCC3(CC2)OCCN3S(=O)(=O)c2cccc(OC)c2)c1 [Compound C0002],88.4,3.9,93.8
COc1ccccc1S(=O)(=O)N1CCC2(CC1)OCCN2S(=O)(=O)c1ccccc1OC [Compound C0003],162.3,107.7,215.9
N#Cc1ccccc1S(=O)(=O)N1CCC2(CC1)OCCN2S(=O)(=O)c1ccccc1C#N [Compound C0004],122.0,65.8,228.4
O=S(=O)(c1cccc(OC(F)(F)F)c1)N1CCC2(CC1)OCCN2S(=O)(=O)c1cccc(OC(F)(F)F)c1 [Compound C0005],180.4,166.4,227.2
O=S(=O)(c1ccc(OC(F)(F)F)cc1)N1CCC2(CC1)OCCN2S(=O)(=O)c1ccc(OC(F)(F)F)cc1 [Compound C0006],121.5,4.6,204.0
CC(C)c1ccc(S(=O)(=O)N2CCC3(CC2)OCCN3S(=O)(=O)c2ccc(C(C)C)cc2)cc1 [Compound C0007],79.1,10.9,195.0
N#Cc1ccc(S(=O)(=O)N2CCC3(CC2)OCCN3S(=O)(=O)c2ccc(C#N)cc2)cc1 [Compound C0008],71.2,2.8,201.6
O=S(=O)(c1ccc(-c2ccccc2)cc1)N1CCC2(CC1)OCCN2S(=O)(=O)c1ccc(-c2ccccc2)cc1 [Compound C0010],136.5,89.1,307.0
O=S(=O)(c1ccc(C(F)(F)F)cc1)N1CCC2(CC1)OCCN2S(=O)(=O)c1ccc(C(F)(F)F)cc1 [Compound C0012],96.8,184.4,224.8
CC(=O)Nc1ccc(S(=O)(=O)N2CCC3(CC2)OCCN3S(=O)(=O)c2ccc(NC(C)=O)cc2)cc1 [Compound C0013],156.6,39.6,301.2
Cc1cccc(S(=O)(=O)N2CCC3(CC2)OCCN3S(=O)(=O)c2cccc(C)c2)c1 [Compound C0014],144.9,76.3,153.5
Cc1ccccc1S(=O)(=O)N1CCC2(CC1)OCCN2S(=O)(=O)c1ccccc1C [Compound C0015],138.7,126.8,204.7
O=S(=O)(c1ccccc1)N1CCC2(CC1)OCCN2S(=O)(=O)c1ccccc1 [Compound C0016],172.7,96.7,230.5
COc1ccc(C(=O)N2CCC3(CC2)OCCN3C(=O)c2ccc(OC)cc2)cc1 [Compound C0017],153.8,94.1,284.5
COc1ccc(C(=O)N2CCC3(CC2)OCCN3S(=O)(=O)c2ccc(OC)cc2)cc1 [Compound C0018],195.5,106.5,247.7
COc1ccc(C(=O)N2CCOC23CCN(S(=O)(=O)c2ccc(OC)cc2)CC3)cc1 [Compound C0019],104.4,52.8,176.6
CNc1ccc(S(=O)(=O)N2CCC3(CC2)OCCN3S(=O)(=O)c2ccc(NC)cc2)cc1 [Compound C0024],178.4,59.3,229.6
O=S(=O)(c1ccc(Br)cc1)N1CCC2(CC1)OCCN2S(=O)(=O)c1ccc(Br)cc1 [Compound C0025],235.7,80.2,320.7
COC(=O)c1ccc(S(=O)(=O)N2CCC3(CC2)OCCN3S(=O)(=O)c2ccc(C(=O)OC)cc2)cc1 [Compound C0028],93.9,78.4,132.4
O=S(=O)(c1ccc(F)cc1)N1CCC2(CC1)OCCN2S(=O)(=O)c1ccc(F)cc1 [Compound C0029],175.4,16.6,308.8
CCCCc1ccc(S(=O)(=O)N2CCC3(CC2)OCCN3S(=O)(=O)c2ccc(CCCC)cc2)cc1 [Compound C0030],150.3,95.0,226.8
O=C(c1ccc([N+](=O)[O-])cc1)N1CCC2(CC1)OCCN2C(=O)c1ccc([N+](=O)[O-])cc1 [Compound C0032],145.4,80.9,202.0
NS(=O)(=O)c1ccc(S(=O)(=O)N2CCC3(CC2)OCCN3S(=O)(=O)c2ccc(S(N)(=O)=O)cc2)cc1 [Compound C0034],103.6,80.1,167.9
COc1ccc(NC(=O)N2CCC3(CC2)OCCN3S(=O)(=O)c2ccc(OC)cc2)cc1 [Compound C0041],186.1,95.5,244.4
O=C(OCc1ccccc1)c1ccc(S(=O)(=O)N2CCC3(CC2)OCCN3S(=O)(=O)c2ccc(C(=O)OCc3ccccc3)cc2)cc1 [Compound C0042],167.1,110.6,260.9
COc1ccc(S(=O)(=O)N2CCC3(CC2)OCCN3S(=O)(=O)c2ccc(C(C)=O)cc2)cc1 [Compound C0048],209.1,89.9,245.3
